The test system of test [1] is THP-1 cells (TNFα secretion on human IgG-coated plate). In words: TNFα generation assay. It counts as cell-based. The following applies: IFN-γ differentiated THP-1 cells, 7 hours, AlphaLISA, read-out: IC50 of TNFα generation inhibitory activity. The essentials: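 Secreted TNFα was measured by AlphaLISA after 7 h of culture on human IgG-coated wells (coating at 10 μg/ml), with 5×10^4 cells/well. Before plating, the cells had been treated with compound for 30 min at room temperature. The cells were macrophage-like THP-1, produced by a 2-day exposure to 10 ng/ml IFN-γ.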

The target of test [2] is T1, glutathione S-transferase (GST)-linked full-length human Syk protein (Homo sapiens, UniProt P43405).
T1 construct: glutathione S-transferase (GST)-linked full-length human Syk protein; purchased Carna Biosciences; host or cells: Baculovirus expression system
Nature of the test: Syk enzyme assay. As to conditions: 0.83 nM Syk, time-resolved fluorescence; read-out: IC50 of Syk-inhibitory activity. The format is biochemical. The essentials: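 Phosphotyrosine on a biotin-peptide substrate (0.5 μM) was read by time-resolved fluorescence at 615 and 665 nm with Eu-anti-pTyr antibody and APC-streptavidin after 1 h EDTA stop.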

Test [3] has as its system mouse thrombocytopenia induced by anti-mouse CD41 antibody. In words: Mouse thrombocytopenia model. It counts as in vivo. As to conditions: Platelet, female BALB/c mice, 50 mg/kg 1 hour before anti-CD41 antibody, blood sampling 4 hours after antibody, read-out: improvement of platelet count compared with the control group. As for the experimental part:
Test compounds were tested to examine effects upon mouse thrombocytopenia. Each test compound (50 mg/kg) was administered to 5- to 7-week-old female BALB/c mice (Charles River Laboratories Japan, Inc.). One hour thereafter, an anti-mouse CD41 ([…]) antibody (SCB) (1 μg (200 μl)) was intravenously administered to each mouse so as to induce thrombocytopenia. Four hours after administration of the anti-CD41 antibody, blood sampling from the postcava was performed. The platelet count was determined using an automated hematology analyzer.

Test [4] concerns THP-1 cells (phagocytosis of opsonized Escherichia coli). Nature of the test: Antibody-dependent phagocytosis assay. The format is cell-based. The following applies: Homo sapiens; IFNγ differentiated THP-1 cells, opsonized pHrodo Escherichia coli, 3 hours; read-out: IC50 upon phagocytosis inhibition. The essentials: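 Read-out was imaging-based quantification of pHrodo-labeled, antibody-opsonized E. coli taken up by Calcein AM-stained viable cells after 3 h at 37° C. The cells were IFNγ-differentiated THP-1 macrophages (10 ng/ml, 2 days), preincubated with compound for 30 min at room temperature.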

With `Cc1nn(CC(F)F)c2ccc(Nc3nc(N[C@@H]4CCOC[C@@H]4N)c(F)cc3C(N)=O)cc12` [Example 2-328, 6-(((3R,4R)-3-aminotetrahydro-2H-pyran-4-yl)amino)-2-((1-(2,2-difluoroethyl)-3-methyl-1H-indazol-5-yl)amino)-5-fluoronicotinamide], the IC50 in test [1] was less than 65 nM; in test [2], less than 10 nM. Besides, the change in vivo at 50 mg/kg in test [3] was not below 50%.

In the case of `CC[C@H](N)[C@H](Nc1nc(Nc2cnc(C)c(-n3nccn3)c2)c(C(N)=O)cc1F)C1CC1` [Example 2-358, 6-(((1R,2S)-2-amino-1-cyclopropylbutyl)amino)-5-fluoro-2-((6-methyl-5-(2H-1,2,3-triazol-2-yl)pyridin-3-yl)amino)nicotinamide], the IC50 lay within 1000 to 3000 nM in test [4] and 10 to 50 nM in test [2]. In addition, the change in vivo at 50 mg/kg in test [3] was not below 50%.

Consider `NC(=O)c1cc(F)c(N[C@@H]2CCCC[C@@H]2N)nc1Nc1cncc(-n2cc(Cl)cn2)c1` [Example 2-483, 6-(((1R,2S)-2-aminocyclohexyl)amino)-2-((5-(4-chloro-1H-pyrazol-1-yl)pyridin-3-yl)amino)-5-fluoronicotinamide], for which, in test [2], the IC50 was less than 10 nM. For the same molecule, the change in vivo at 50 mg/kg in test [3] was not below 50%.

Consider `CCC[C@@H](Nc1nc(Nc2cnc3c(c2)c(OC)nn3C)c(C(N)=O)cc1F)[C@H](C)N` [Example 2-252, 6-(((2S,3R)-2-aminohexan-3-yl)amino)-5-fluoro-2-((3-methoxy-1-methyl-1H-pyrazolo[3,4-b]pyridin-5-yl)amino)nicotinamide], for which the IC50 in test [1] is 130 to 200 nM; in test [4], less than 1000 nM; in test [2] it was less than 10 nM. Also, the change in vivo at 50 mg/kg in test [3] is not below 50%.

Regarding `COCCn1ncc2c(Nc3nc(N[C@@H]4CCCC[C@@H]4N)c(F)cc3C(N)=O)cccc21` [Example 2-302, 6-(((1R,2S)-2-aminocyclohexyl)amino)-5-fluoro-2-((1-(2-methoxyethyl)-1H-indazol-4-yl)amino)nicotinamide], the figures for the IC50 in test [1], in test [4] and in test [2] were 130 to 200 nM, 1000 to 3000 nM and less than 10 nM, respectively. In addition, the change in vivo at 50 mg/kg in test [3] is not below 50%.

`COCCn1ncc2c(Nc3nc(N[C@@H]4CCOC[C@@H]4N)c(F)cc3C(N)=O)cccc21` [Example 2-331, 6-(((3R,4R)-3-aminotetrahydro-2H-pyran-4-yl)amino)-5-fluoro-2-((1-(2-methoxyethyl)-1H-indazol-4-yl)amino)nicotinamide]: the figures for the IC50 in test [4] and in test [2] were 1000 to 3000 nM and less than 10 nM, respectively. In addition, the change in vivo at 50 mg/kg in test [3] is not below 50%.

Turning to `CC[C@@H](Nc1nc(Nc2cnc3c(c2)c(OC)nn3C)c(C(N)=O)cc1F)[C@H](C)N` [Example 2-251, 6-(((2S,3R)-2-aminopentan-3-yl)amino)-5-fluoro-2-((3-methoxy-1-methyl-1H-pyrazolo[3,4-b]pyridin-5-yl)amino)nicotinamide], the IC50 fell in the range of 130 to 200 nM in test [1] and 10 to 50 nM in test [2]. Moreover, the change in vivo at 50 mg/kg in test [3] was not below 50%.

Turning to `COCCN(C)c1nn(C)c2ccc(Nc3nc(N[C@@H]4CCCC[C@@H]4N)c(F)cc3C(N)=O)cc12` [Example 2-456, 6-(((1R,2S)-2-aminocyclohexyl)amino)-5-fluoro-2-((3-((2-methoxyethyl)(methyl)amino)-1-methyl-1H-indazol-5-yl)amino)nicotinamide], the IC50 in test [2] was less than 10 nM. Also, the change in vivo at 50 mg/kg in test [3] was not below 50%.

Turning to `C[C@H](N)[C@H](Nc1nc(Nc2ccc3c(c2)c(N(C)C)nn3C)c(C(N)=O)cc1F)C1CCC1` [Example 2-89, 6-(((1R,2S)-2-amino-1-cyclobutylpropyl)amino)-2-((3-(dimethylamino)-1-methyl-1H-indazol-5-yl)amino)-5-fluoronicotinamide], the IC50 in test [4] is 1000 to 3000 nM; in test [2], less than 10 nM. The change in vivo at 50 mg/kg in test [3] was not below 50%.

For `Cc1cc(C)n(-c2cncc(Nc3nc(N[C@@H]4CCCC[C@@H]4N)c(F)cc3C(N)=O)c2)n1` [Example 2-473, 6-(((1R,2S)-2-aminocyclohexyl)amino)-2-((5-(3,5-dimethyl-1H-pyrazol-1-yl)pyridin-3-yl)amino)-5-fluoronicotinamide], in test [2], the IC50 fell in the range of 10 to 50 nM. Moreover, the change in vivo at 50 mg/kg in test [3] was not below 50%.

As to `CCn1ncc2cc(Nc3nc(N[C@@H]4CCOC[C@@H]4N)c(F)cc3C(N)=O)ccc21` [Example 2-326, 6-(((3R,4R)-3-aminotetrahydro-2H-pyran-4-yl)amino)-2-((1-ethyl-1H-indazol-5-yl)amino)-5-fluoronicotinamide], the IC50 in test [1] was less than 65 nM; in test [2], less than 10 nM. Further, in test [3], the change in vivo at 50 mg/kg was not below 50%.

In the case of `Cc1ncc(Nc2nc(N[C@H](c3cccs3)[C@H](C)N)c(F)cc2C(N)=O)cc1-n1nccn1` [Example 2-415, 6-(((1S,2S)-2-amino-1-(thiophen-2-yl)propyl)amino)-5-fluoro-2-((6-methyl-5-(2H-1,2,3-triazol-2-yl)pyridin-3-yl)amino)nicotinamide], the IC50 in test [1] was 130 to 200 nM; in test [2], less than 10 nM. In test [3], the change in vivo at 50 mg/kg is not below 50%.

As to `C[C@H](N)[C@H](Nc1nc(Nc2cc(F)c3c(c2)c(N(C)C)nn3C)c(C(N)=O)cc1F)C1CCC1` [Example 2-192, 6-(((1R,2S)-2-amino-1-cyclobutylpropyl)amino)-2-((3-(dimethylamino)-7-fluoro-1-methyl-1H-indazol-5-yl)amino)-5-fluoronicotinamide], the results for the IC50 in test [4] and in test [2] were 1000 to 3000 nM and less than 10 nM, respectively. Moreover, in test [3], the change in vivo at 50 mg/kg is not below 50%.

As to `C[C@H](N)[C@@H](CC1CC1)Nc1nc(Nc2ccc3c(c2)c(N(C)C)nn3C)c(C(N)=O)cc1F` [Example 2-2, 6-(((2R,3S)-3-amino-1-cyclopropylbutan-2-yl)amino)-2-((3-(dimethylamino)-1-methyl-1H-indazol-5-yl)amino)-5-fluoronicotinamide], the IC50 is less than 1000 nM in test [4] and less than 10 nM in test [2]. In test [3], the change in vivo at 50 mg/kg is not below 50%.

Consider `COCCn1nc(OC(F)F)c2cc(Nc3nc(N[C@@H]4CCOC[C@@H]4N)c(F)cc3C(N)=O)ccc21` [Example 2-352, 6-(((3R,4R)-3-aminotetrahydro-2H-pyran-4-yl)amino)-2-((3-(difluoromethoxy)-1-(2-methoxyethyl)-1H-indazol-5-yl)amino)-5-fluoronicotinamide], for which the values for the IC50 in test [4] and in test [2] were less than 1000 nM and less than 10 nM, respectively. Moreover, in test [3], the change in vivo at 50 mg/kg is not below 50%.

As for `CCn1ncc2c(Nc3nc(N[C@H](C4CCC4)[C@H](C)N)c(F)cc3C(N)=O)cccc21` [Example 2-98, 6-(((1R,2S)-2-amino-1-cyclobutylpropyl)amino)-2-((1-ethyl-1H-indazol-4-yl)amino)-5-fluoronicotinamide], the IC50 is 130 to 200 nM in test [1], less than 1000 nM in test [4] and less than 10 nM in test [2].

Turning to `COCCn1nc(C)c2cc(Nc3nc(N[C@H](COC)[C@H](C)N)c(F)cc3C(N)=O)ccc21` [Example 2-135, 6-(((2S,3S)-3-amino-1-methoxybutan-2-yl)amino)-5-fluoro-2-((1-(2-methoxyethyl)-3-methyl-1H-indazol-5-yl)amino)nicotinamide], the IC50 was in the range of 130 to 200 nM in test [1], 1000 to 3000 nM in test [4] and 10 to 50 nM in test [2].

Turning to `COc1nn(CC(F)F)c2ccc(Nc3nc(N[C@H](C4CC4)[C@H](C)N)c(F)cc3C(N)=O)cc12` [Example 2-74, 6-(((1R,2S)-2-amino-1-cyclopropylpropyl)amino)-2-((1-(2,2-difluoroethyl)-3-methoxy-1H-indazol-5-yl)amino)-5-fluoronicotinamide], the IC50 is 65 to 130 nM in test [1], less than 1000 nM in test [4] and less than 10 nM in test [2].

For the molecule `Cc1ncc(Nc2nc(N[C@H](c3ccc(F)cc3)[C@H](C)N)c(F)cc2C(N)=O)cc1F` [Example 2-272, 6-(((1R,2S)-2-amino-1-(4-fluorophenyl)propyl)amino)-5-fluoro-2-((5-fluoro-6-methylpyridin-3-yl)amino)nicotinamide], the IC50 was 130 to 200 nM in test [1], less than 1000 nM in test [4] and 10 to 50 nM in test [2].

Take `COCCn1ncc2c(Nc3nc(N[C@H](C4CC4)[C@H](C)N)c(F)cc3C(N)=O)cccc21` [Example 2-306, 6-(((1R,2S)-2-amino-1-cyclopropylpropyl)amino)-5-fluoro-2-((1-(2-methoxyethyl)-1H-indazol-4-yl)amino)nicotinamide]: the IC50 in test [1] was 130 to 200 nM; in test [4], 1000 to 3000 nM; in test [2] it was less than 10 nM.

The values above are taken from US9051310B2, “Nicotinamide derivative or salt thereof” (FUJIFILM Corporation, priority 2011, dated 2015).
